Values after ≈ are worked out from the molar mass of the structure shown. Active and inactive are the calls of the source. No cut-off for these calls is given here.
Experiments:
[1] = tested on: Escherichia coli BW25113; experiment: Inhibition of AcrA efflux pump in Escherichia coli BW25113 assessed as compound concentration required for potentiation of novobiocin-induced antibacterial activity by 4 fold by checkerboard assay
[2] = tested on: Escherichia coli; experiment: Antimicrobial activity against Escherichia coli BW25113 after 24 hrs by two-fold broth microdilution assay; format: functional; details: BW25113, 24 h
[3] = tested on: Escherichia coli BW25113; experiment: Inhibition of AcrA efflux pump in Escherichia coli BW25113 assessed as compound concentration required for potentiation of novobiocin-induced antibacterial activity by 2 fold by checkerboard assay
[4] = tested on: Escherichia coli; experiment: Antimicrobial activity against Escherichia coli harboring pores in outer membrane after 24 hrs by two-fold broth microdilution assay; format: functional
[5] = tested on: Escherichia coli; experiment: Binding affinity to Escherichia coli AG100 His-tagged AcrA at 25 uM by SPR assay
[6] = tested on: Escherichia coli; experiment: Inhibition of AcrA in Escherichia coli assessed as increase in HT dye uptake at 25 uM measured up to 600 secs by fluorescence method
[7] = tested on: Escherichia coli; experiment: Ratio of MIC for wild type Escherichia coli harboring […] pores in the outer membrane to MIC for AcrAB-TolC knocked out Escherichia coli GD102 harboring […] pores in the outer membrane; format: functional
[8] = tested on: Escherichia coli; experiment: Antimicrobial activity against AcrAB-TolC knocked out Escherichia coli GD102 harboring […] pores in the outer membrane after 24 hrs by two-fold broth microdilution assay; format: functional; details: GD102, 24 h
[9] = Ratio of MIC for wild type Escherichia coli BW25113 to MIC for Escherichia coli harboring […] pores in the outer membrane; format: functional, cell membranes
[10] = tested on: Escherichia coli; experiment: Inhibition of AcrA in Escherichia coli assessed as HT dye uptake at 25 uM measured up to 600 secs by fluorescence method relative to control
[11] = tested on: Escherichia coli; experiment: Ratio of MIC for wild type Escherichia coli harboring […] pores in the outer membrane to MIC for wild type Escherichia coli harboring […] pores in the outer membrane in presence of novobiocin; format: functional
[12] = tested on: Escherichia coli; experiment: Antimicrobial activity against Escherichia coli harboring AcrAB-TolC deletion mutant after 24 hrs by two-fold broth microdilution assay; format: functional
[13] = tested on: Escherichia coli; experiment: Ratio of MIC for wild type Escherichia coli harboring […] pores in the outer membrane to MIC for wild type Escherichia coli harboring […] pores in the outer membrane in presence of erythromycin; format: functional
[14] = tested on: Escherichia coli; experiment: Inhibition of AcrA in Escherichia coli assessed as increase in HT dye uptake at 25 uM measured up to 600 secs by fluorescence method relative to control

COc1ccc(/C=C/C(=O)Nc2ccc(C3=NCCN3)cc2)cc1
Activity [1]: 100 µM

N#Cc1ccc(NC(=O)c2ccc(C(=O)Nc3ccc(C#N)cc3)c(Cl)c2)cc1
Activity [1]: > 400 µM

O=C(Nc1ccc(C2=NCCN2)cc1)c1cccc(C(=O)Nc2ccc(C3=NCCN3)cc2)c1
Activity [1]: 200 µM

O=C(Nc1ccc(CO)cc1)c1ccc(C(=O)Nc2ccc(CO)cc2)c(Cl)c1
Activity [1]: > 200 µM

O=C(CCc1ccccc1)Nc1ccc(C2=NCCN2)cc1
Activity [1]: > 100 µM

COC(=O)c1ccc(C(=O)Nc2ccc(C3=NCCN3)cc2)cc1
Activity [1]: > 400 µM

O=C(Nc1ccc(C2=NCCN2)cc1)c1ccc(C(=O)Nc2ccc(C3=NCCN3)cc2)c(Br)c1
Activity [1]: 50 µM

O=C(Nc1ccc(C2=NCCN2)cc1)c1ccc(Cl)cc1
Activity [1]: 200 µM

O=C(/C=C/c1cccc(Cl)c1)Nc1ccc(C2=NCCN2)cc1
Activity [1]: 50 µM

O=C(Nc1ccc(-c2ncc[nH]2)cc1)c1ccc(C(=O)Nc2ccc(-c3ncc[nH]3)cc2)c(Cl)c1
Activity [1]: > 400 µM

O=C(/C=C/c1ccc(Br)cc1)Nc1ccc(C2=NCCN2)cc1
Activity [1]: 100 µM

O=C(Cc1ccc(Cl)cc1)Nc1ccc(C2=NCCN2)cc1
Activity [1]: > 100 µM

CC(C)(C)c1ccc(/C=C/C(=O)Nc2ccc(C3=NCCN3)cc2)cc1
MIC [2]: 25 µM (≈ 8.69 µg/mL)
Activity [3]: 12.5 µM
MIC [4]: 25 µM (≈ 8.69 µg/mL)
Activity [5]: Active
Activity [6]: Active
Ratio [7]: 2
MIC [8]: 12.5 µM (≈ 4.34 µg/mL)
Ratio [9]: 1
fold change (FC) [10]: 2.6
Ratio [11]: 2
MIC [12]: 12.5 µM (≈ 4.34 µg/mL)
Ratio [13]: 2
fold change (FC) [14]: 2.6

O=C(Nc1ccc(C2=NCCN2)cc1)c1ccc2c(c1)CN(Cc1ccccc1)C2=O
Activity [1]: > 200 µM

O=C(/C=C/c1ccccc1)Nc1ccc(C2=NCCN2)cc1
Activity [1]: 200 µM

O=C(Nc1ccc(C2=NCCN2)cc1)c1ccc(C(=O)Nc2ccc(C3=NCCN3)cc2)cc1
Activity [1]: 50 µM

O=C(/C=C/c1ccccc1Br)Nc1ccc(C2=NCCN2)cc1
MIC [2]: > 400 µM
MIC [4]: > 400 µM
Activity [5]: Active
Activity [6]: Active
Ratio [7]: 8
MIC [8]: 100 µM (≈ 37 µg/mL)
Ratio [9]: 1
Activity [1]: 50 µM
fold change (FC) [10]: 11.6
Ratio [11]: 32
MIC [12]: 200 µM (≈ 74.1 µg/mL)
Ratio [13]: 32

O=C(/C=C/c1ccccc1C(F)(F)F)Nc1ccc(C2=NCCN2)cc1
Activity [1]: 50 µM

Source: ChEMBL document CHEMBL4011640, “Identification and Structure-Activity Relationships of Novel Compounds that Potentiate the Activities of Antibiotics in Escherichia coli” (J Med Chem, 2017)
